According to patent US8871756B2 (Hoffmann-La Roche Inc., priority 2011, dated 2014):

Test system: RSV Long strain
Assay: Viral cytopathic effect (CPE) assay, anti-RSV activity
Type: cell-based, Respiratory Syncytial Virus
Details: human respiratory syncytial virus, 144 h, RSV Long strain (ATCC); cell viability after 6 days, Cell Counting kit-8
Description: Viral cytopathic effect (CPE) assay: To measure anti-RSV activity of compounds, 96-well plates are seeded with 6×10^3 cells per well in Dulbecco's modified Eagle's medium (DMEM) containing 10% fetal bovine serum (FBS). Cells are infected the next day with sufficient RSV Long strain (ATCC) to produce an approximately 80-90% cytopathic effect after 6 days, in the presence of serial half-log diluted compound in a total volume of 200 μL per well. The viability of cells is assessed after 6 days using Cell Counting kit-8 (Dojindo Molecular Technologies). The absorbance at 450 nm and referenced at 630 nm is measured to determine 50% effective concentration (EC50).
The compounds of the present invention were tested for their anti-RSV activity, and the activation as described herein. The Examples were tested in the above assay and found to have EC50 of about 0.0001 μM to about 10 μM.

Row | SMILES | EC50 [µM]
1 | Cc1ccc2nc(N3CCSc4ccccc4C3)cc(N3CCC(N)C3)c2c1 (stereo not drawn) [Example 4-4, 1-[2-(2,3-Dihydro-1,4-benzothiazepin-4(5H)-yl)-6-methylquinolin-4-yl]pyrrolidin-3-amine] | 0.208
2 | CCS(=O)(=O)c1ccc2c(c1)CCCN(c1cc(NCCN)c3ccccc3n1)C2 [Example 120-2, N-{2-[7-(Ethylsulfonyl)-1,3,4,5-tetrahydro-2H-2-benzazepin-2-yl]quinolin-4-yl}ethane-1,2-diamine] | 1.79
3 | Cc1ccc2nc(N3CCS(=O)(=O)c4ccccc4C3)cc(NCC(O)CCO)c2c1 (stereo not drawn) [Example 68, 4-{[2-(1,1-Dioxido-2,3-dihydro-1,4-benzothiazepin-4(5H)-yl)-6-methylquinolin-4-yl]amino}butane-1,3-diol] | 2.01
4 | Cc1ccc2nc(N3CC[S+]([O-])c4ccccc4C3)nc(N3CCC(N)C3)c2c1 (stereo not drawn) [Example 93-1, 1-[6-Methyl-2-(1-oxido-2,3-dihydro-1,4-benzothiazepin-4(5H)-yl)quinazolin-4-yl]pyrrolidin-3-amine] | 0.005
5 | Cc1ccc2nc(N3CCS(=O)(=O)c4ccccc4C3)cc(NC3CCN(C4COC4)C3)c2c1 (stereo not drawn) [Example 44-1, 2-(1,1-Dioxido-2,3-dihydro-1,4-benzothiazepin-4(5H)-yl)-6-methyl-N-[1-(oxetan-3-yl)pyrrolidin-3-yl]quinolin-4-amine] | 0.084
6 | Cc1ccc2nc(N3CCS(=O)(=O)c4ccccc4C3)cc(NCCCCCCCCN)c2c1 [Example 12-5, N-[2-(1,1-Dioxido-2,3-dihydro-1,4-benzothiazepin-4(5H)-yl)-6-methylquinolin-4-yl]octane-1,8-diamine] | 0.448
7 | Cc1ccc2nc(N3CCC(F)(F)c4ccccc4C3)nc(NCC3(CN)COC3)c2c1 [Example 114-3, N-{[3-(Aminomethyl)oxetan-3-yl]methyl}-2-(5,5-difluoro-1,3,4,5-tetrahydro-2H-2-benzazepin-2-yl)-6-methylquinazolin-4-amine] | 0.004
8 | COc1ccc2c(c1)S(=O)(=O)CCN(c1cc(NCCO)c3ccccc3n1)C2 [Example 9-2, 2-{[2-(8-M ethoxy-1,1-dioxido-2,3-dihydro-1,4-benzothiazepin-4(5 H)-yl)quinolin-4-yl]amino}ethanol] | 4.77
9 | Cc1ccc2nc(N3CCS(=O)(=O)c4ccccc4C3)nc(NCCO)c2c1 [Example 57-7, 2-{[2-(1,1-Dioxido-2,3-dihydro-1,4-benzothiazepin-4(5H)-yl)-6-methylquinazolin-4-yl]amino}ethanol] | 0.081
10 | COCCNCCNc1cc(N2CCS(=O)(=O)c3ccccc3C2)nc2ccc(C)cc12 [Example 3-44, N-[2-(1,1-Dioxido-2,3-dihydro-1,4-benzothiazepin-4(5H)-yl)-6-methylquinolin-4-yl]-N′-(2-methoxyethyl)ethane-1,2-diamine] | 0.012
11 | Cc1ccc2nc(N3CCS(=O)(=O)c4ccccc4C3)cc(NC[C@@H](O)CO)c2c1 [Example 3-11, (2R)-3-{[2-(1,1-Dioxido-2,3-dihydro-1,4-benzothiazepin-4(5H)-yl)-6-methylquinolin-4-yl]amino}propane-1,2-diol] | 0.054
12 | Cc1ccc2nc(N3CCS(=O)(=O)c4ccccc4C3)cc(N[C@@H](C)C(N)=O)c2c1 [Example 36-4, N^˜2^˜-[2-(1,1-dioxido-2,3-dihydro-1,4-benzothiazepin-4(5H)-yl)-6-methylquinolin-4-yl]-L-alaninamide] | 0.138
13 | Cc1ccc2nc(N3CCC(F)(F)c4ccccc4C3)nc(NCC(F)(F)CN)c2c1 [Example 117, N-[2-(5,5-Difluoro-1,3,4,5-tetrahydro-2H-2-benzazepin-2-yl)-6-methylquinazolin-4-yl]-2,2-difluoropropane-1,3-diamine] | 5.97
14 | Cc1ccc2nc(N3CCS(=O)(=O)c4ccccc4C3)cc(NCC3(N)CCOCC3)c2c1 [Example 2-3, N-[(4-Aminotetrahydro-2H-pyran-4-yl)methyl]-2-(1,1-dioxido-2,3-dihydro-1,4-benzothiazepin-4(5H)-yl)-6-methylquinolin-4-amine] | 2.81
15 | Cc1ccc2nc(N3CCS(=O)(=O)c4ccccc4C3)cc(N)c2c1 [Example 39, 2-(1,1-Dioxido-2,3-dihydro-1,4-benzothiazepin-4(5H)-yl)-6-methylquinolin-4-amine] | 0.092
16 | Cc1ccc2nc(N3CCS(=O)(=O)c4ccccc4C3)cc(NCCCCCN)c2c1 [Example 3-55, N-[2-(1,1-Dioxido-2,3-dihydro-1,4-benzothiazepin-4(5H)-yl)-6-methylquinolin-4-yl]pentane-1,5-diamine] | 0.027

Continued, values first:

Row | EC50 [µM] | SMILES
17 | 0.024 | Cc1cc2c(NCCN)cc(N3CCS(=O)(=O)c4ccccc4C3)nc2cc1F [Example 9-24, N-[2-(1,1-Dioxido-2,3-dihydro-1,4-benzothiazepin-4(5H)-yl)-7-fluoro-6-methylquinolin-4-yl]ethane-1,2-diamine]
18 | 0.0004 | Cc1ccc2nc(N3CCS(=O)(=O)c4ccccc4C3)cc(NCC3(CN)COC3)c2c1 [Example 3-50, N-{[3-(Aminomethyl)oxetan-3-yl]methyl}-2-(1,1-dioxido-2,3-dihydro-1,4-benzothiazepin-4(5H)-yl)-6-methylquinolin-4-amine]
19 | 0.89 | COC(=O)c1ccc2nc(N3CCS(=O)(=O)c4ccccc4C3)cc(NCC3(CN)COC3)c2c1 [Example 104, Methyl 4-({[3-(aminomethyl)oxetan-3-yl]methyl}amino)-2-(1,1-dioxido-2,3-dihydro-1,4-benzothiazepin-4(5H)-yl)quinoline-6-carboxylate]
20 | 0.074 | Cc1ccc2nc(N3CCS(=O)(=O)c4ccccc4C3)cc(N3C[C@@H]4NCCO[C@@H]4C3)c2c1 [Example 8-5, 4-{4-[(4aS,7aR)-Hexahydropyrrolo[3,4-b][1,4]oxazin-6(2H)-yl]-6-methylquinolin-2-yl}-2,3,4,5-tetrahydro-1,4-benzothiazepine 1,1-dioxide]
21 | 0.009 | Cc1ccc2c(c1)S(=O)(=O)CCN(c1cc(NCC3(CN)COC3)c3ccccc3n1)C2 [Example 3-7]
22 | 2.66 | NCCCNc1cc(N2CCS(=O)(=O)c3ccccc3C2)nc2c(Cl)cccc12 [Example 9-12, N-[8-Chloro-2-(1,1-dioxido-2,3-dihydro-1,4-benzothiazepin-4(5H)-yl)quinolin-4-yl]propane-1,3-diamine]
23 | 0.005 | Cc1ccc2nc(N3CCS(=O)(=O)c4ccccc4C3)cc(NC3(CN)COC3)c2c1 [Example 71, N-[3-(Aminomethyl)oxetan-3-yl]-2-(1,1-dioxido-2,3-dihydro-1,4-benzothiazepin-4(5H)-yl)-6-methylquinolin-4-amine]
24 | 0.099 | COc1ccc2c(c1)S(=O)(=O)CCN(c1cc(NCC3(N)COC3)c3cc(Cl)ccc3n1)C2 [Example 3-13, N-[(3-Aminooxetan-3-yl)methyl]-6-chloro-2-(8-methoxy-1,1-dioxido-2,3-dihydro-1,4-benzothiazepin-4(5H)-yl)quinolin-4-amine]
25 | 0.211 | Cc1ccc2nc(N3CCS(=O)(=O)c4ccccc4C3)cc(NCCOCCN)c2c1 [Example 5-2, N-[2-(2-Aminoethoxy)ethyl]-2-(1,1-dioxido-2,3-dihydro-1,4-benzothiazepin-4(5H)-yl)-6-methylquinolin-4-amine]
26 | 0.662 | Cc1ccc2nc(N3CCS(=O)(=O)c4ccccc4C3)cc(NCCC#N)c2c1 [Example 83, 3-{[2-(1,1-Dioxido-2,3-dihydro-1,4-benzothiazepin-4(5H)-yl)-6-methylquinolin-4-yl]amino}propanenitrile]
27 | 0.005 | Cc1ccc2nc(N3CCS(=O)(=O)c4ccccc4C3)nc(NCCN)c2c1 [Example 90, N-[2-(1,1-Dioxido-2,3-dihydro-1,4-benzothiazepin-4(5H)-yl)-6-methylquinazolin-4-yl]ethane-1,2-diamine]
28 | 2.79 | Cc1ccc2nc(N3CCS(=O)(=O)c4cc(Oc5ccccc5)ccc4C3)cc(NCC3(N)COC3)c2c1 [Example 35, N-[(3-Aminooxetan-3-yl)methyl]-2-(1,1-dioxido-8-phenoxy-2,3-dihydro-1,4-benzothiazepin-4(5H)-yl)-6-methylquinolin-4-amine]
29 | 0.071 | COc1ccc2nc(N3CCS(=O)(=O)c4ccccc4C3)cc(NCCCN)c2c1 [Example 17-4, N-[2-(1,1-Dioxido-2,3-dihydro-1,4-benzothiazepin-4(5H)-yl)-6-methoxyquinolin-4-yl]propane-1,3-diamine]
30 | 8.79 | Cc1ccc2nc(N3CCS(=O)(=O)c4ccccc4C3)cc(NCCC(=O)O)c2c1 [Example 14-2, N-[2-(1,1-Dioxido-2,3-dihydro-1,4-benzothiazepin-4(5H)-yl)-6-methylquinolin-4-1]-beta-alanine]
31 | 0.043 | Cc1ccc2nc(N3CCS(=O)(=O)c4ccccc4C3)cc(NC[C@@H](N)CO)c2c1 [Example 37-2, (2R)-2-Amino-3-{[2-(1,1-dioxido-2,3-dihydro-1,4-benzothiazepin-4(5H)-yl)-6-methylquinolin-4-yl]amino}propan-1-ol]
32 | 0.004 | Cc1ccc2nc(N3CCC(F)(F)c4ccccc4C3)cc(NCC3(CN)COC3)c2c1 [Example 110-15, N-{[3-(Aminomethyl)oxetan-3-yl]methyl}-2-(5,5-difluoro-1,3,4,5-tetrahydro-2H-2-benzazepin-2-yl)-6-methylquinolin-4-amine]
33 | 0.037 | Cc1ccc2nc(N3CCS(=O)(=O)c4ccccc4C3)cc(NC(=O)CCN)c2c1 [Example 42-2, N-[2-(1,1-Dioxido-2,3-dihydro-1,4-benzothiazepin-4(5H)-yl)-6-methylquinolin-4-yl]-beta-alaninamide]
